Measurements from patent US20220241202A1, “METHOD AND VEHICLE FOR DELIVERING AGENTS ACROSS THE BLOOD-BRAIN BARRIER” (priority 2019, published 2022).
Residue numbers refer to the chain shown, from its start. In names and notes the source's numbering stands.

Tests used:
[1] = system: naive CAD cells; assay: EV delivery of GFP-72Q huntingtin^exon1 cargo to naive recipient CAD cells (live cell fluorescence imaging); type: cell-based; conditions: for GFP-72Q huntingtin^exon1 cargo / aggregates in recipient CAD cells after media application: conditioned media applied to naive cells, imaged 1-48 hours
Description: Images of live cells were taken with the EVOS FL Auto Imaging System. Images of donor cells were taken at the time of media collection. Images of recipient cells were taken between 1-48 hours. The intensity of the GFP-72Q huntingtin^exon1 varied among cells and a single slider was used until the on-screen brightness of the lowest intensity aggregate was satisfactory and used this setting to capture images in high-quality mode. Where indicated, after the 300×g for 5 minutes conditioned media spin to remove cell debris, 60 μl of Exo-Red (SBI) was incubated with 1 ml media containing EVs for 10 minutes at 37° C. to label the RNA EV cargo. 150 μl of exo-quick was added, the labelled EVs were placed on ice for 30 min and then centrifuged for 3 minutes at 20,000×g. The labelled EV pellet was resuspended in 1 ml of DMEM-F12 media and applied to target cells.

[2] = system: CAD cells; assay: Western blot / dot blot analysis of GFP-72Q huntingtin^exon1 in EVs collected from CAD cells; type: cell-based
Description: (§1) Cell lines were transfected with the molecular chaperone CSPα and a GFP-tagged protein. CAD cells (catecholaminergic derived CNS cells) were the cell line utilized. Other cell lines, including patient-derived cell lines, may also be utilized. cDNAs encoding for myc-tagged CSPα or vector alone and GFP-72Q huntingtin^exon1 were transiently transfected with Lipofectamine™ 3000 (Invitrogen) in Opti-MEM™ medium. Media was changed to serum-free media 6 hours post-transfection. Media was collected 48 hours after transfection, spun at 300×g for 5 min to remove cell debris and evaluated without further processing by nanocyte tracking analysis, nanoscale flow cytometry analysis and dot blot analysis. For western blot analysis, EVs were isolated from the unfractionated media by exoquick precipitation solution (SBI) and solubilized in sample buffer. Following media collection, cell viability was determined using an XTT assay (New England Biolabs). When resveratrol was used, it was added to the serum-free media 6 hours post-transfection at the time of the media change.
(§2) Proteins were separated by SDS-PAGE and electrotransferred from polyacrylamide gels to nitrocellulose membrane (0.2 μm pore size). Membranes were blocked in tris-buffered saline (TBS) containing 0.1% Tween 20, 1% BSA and then incubated with primary antibody overnight at 4° C. The membranes were washed and incubated with horseradish peroxidase-coupled secondary antibody for about 2 hours at room temperature. Bound antibodies on the membranes were detected by incubation with Pierce chemiluminescent reagent and exposure to Cdigit, LiCor (Mandel). The chemiluminescent signals were quantified using image studio digits software (Mandel). For dot blots, 10 μl of unfractionated media was spotted on a nitrocellulose membrane, dried and the membrane was processed as described above.

[3] = system: CAD cells; assay: Nanoscale flow cytometry of EVs secreted from CAD cells expressing GFP-72Q huntingtin^exon1; type: cell-based
Description: as §1
For NTA and nanoscale flow cytometry analysis, all samples were diluted 25 fold using 0.2× phosphate buffered saline that had been filtered twice through 0.2 μm filter. For NTA analysis, all samples were analyzed using the Nanosight LM10 (405 nm laser, 60 mW, software version 3.00064). Samples were analyzed in triplicate for 60 seconds per replicate with a count range of 20-100 particles per frame. A variety of NIST (Thermo Scientific 3000 Series) standards were analyzed, each the day prior to sample analysis. The system was cleaned between each sample and checked for any sample carryover using the PBS diluent. NTA measures EVs within a size range from about 30 nm to about 1,000 nm.
Samples were similarly prepared for nanoscale flow cytometry as for NTA. All samples were analyzed using the Apogee A50 flow cytometry platform. Light scatter was provided using the 405 nm laser (75 mW); GFP signal was generated using the 488 nm laser (50 mW, 535/35) and far red signal was generated using the 630 nm laser (75 mW, 680/35). All samples were analyzed for 60 seconds. Optimization was performed to insure single EVs were being analyzed and single events were triggered by light scatter only. The system was cleaned each day prior to sample analysis and a variety of silica and polystyrene standards (Apogee 1493 standards) processed for instrument set up and QC. The silica standards were used to assess the relative size range of EVs. Nanoscale flow cytometry measures EVs within a size range from about 100 nm to about 1,300 nm. […]

[4] = system: CAD cells; assay: Screen of J proteins for EV-mediated export of misfolded huntingtin (western blot and nanoscale flow cytometry); type: cell-based; conditions: cells expressing GFP-tagged 72Q huntingtin^exon1 and the J protein
Description: as §1, §2
Samples were similarly prepared for nanoscale flow cytometry as for NTA. All samples were analyzed using the Apogee A50 flow cytometry platform. Light scatter was provided using the 405 nm laser (75 mW); GFP signal was generated using the 488 nm laser (50 mW, 535/35) and far red signal was generated using the 630 nm laser (75 mW, 680/35). All samples were analyzed for 60 seconds. Optimization was performed to insure single EVs were being analyzed and single events were triggered by light scatter only. The system was cleaned each day prior to sample analysis and a variety of silica and polystyrene standards (Apogee 1493 standards) processed for instrument set up and QC. The silica standards were used to assess the relative size range of EVs. Nanoscale flow cytometry measures EVs within a size range from about 100 nm to about 1,300 nm.
To test whether other J proteins may also export misfolded proteins, several J proteins with reported links to neurodegeneration were screened for EV-mediated export activity. […] Alternative splicing of the DnaJB2 gene produces two isoforms, a DnaJB2short and a 42 kDa DnaJB2long isoform that undergoes C terminal geranylgeranylation. DnaJB2long was studied further. […] Extracellular milieu includes free floating co-chaperones in addition to EVs, and chaperones that adhere to EVs were expected to co-isolate with EVs. […] In fact, DnaJB11 as well as DnaJA1 were robustly secreted by CAD neurons under all conditions evaluated (FIG. 5C).

[5] = previously shown; cited from earlier work
[6] = presence of CSPα and 50 μM resveratrol

Oc1ccc(C=Cc2cc(O)cc(O)c2)cc1 [resveratrol, Resveratrol]
GFP cargo in recipient cells ([1]; media produced from neurons treated with 50 μM resveratrol): GFP cargo was still detected in recipient cells
secretion of GFP-72Q huntingtin^exon1 and CSPα (western blot of EVs) ([2]; 50 μM resveratrol): reduced secretion of GFP-72Q huntingtin^exon1 but not CSPα
secretion of GFP-72Q huntingtin^exon1 mediated by CSPα and ANCL mutants ([2]; 50 μM resveratrol): reduced secretion of GFP-72Q huntingtin^exon1 mediated by CSPα, CSPαL115R and CSPαΔ116
GFP-72Q huntingtin^exon1-containing EVs ([3]; 50 μM resveratrol 6 hours following transfection): decreasing
total EVs exported by CAD cells ([3]; 50 μM resveratrol 6 hours following transfection, all conditions (vector, CSPα, CSPαL115R, CSPαΔ116)): increased total EVs exported by CAD cells in all conditions
mean size of vesicles ([3]; 50 μM resveratrol, all conditions): increased the mean size of vesicles
total EV secretion ([3]; 50 μM resveratrol, control, vector and CSPα-expressing cells): increases total EV secretion
CSPα-EV export of EVs containing GFP-72Q huntingtin^exon1 ([3]; 50 μM resveratrol, p<0.0001): significantly reduced
EVs containing GFP cargo within the 180-240 nm subpopulation [3, 6]: 0.53%
EVs containing GFP cargo within the <180 nm subpopulation [3, 6]: 0.03%
EVs containing GFP cargo within the >240 nm subpopulation [3, 6]: 0.78%
secretion of the 180-240 nm GFP-labelled EV pool ([3]; resveratrol concentration response): significantly reduced secretion of the 180-240 nm GFP-labelled EV pool in a concentration-dependent manner

DnaJA1: related J protein
EV-mediated export of misfolded huntingtin [4]: did not export misfolded huntingtin

DnaJB1: related J protein
EV-mediated export of misfolded huntingtin [4]: did not export misfolded huntingtin

DnaJC13: related J protein
EV-mediated export of misfolded huntingtin [4]: did not export misfolded huntingtin

DnaJC19: related J protein
EV-mediated export of misfolded huntingtin [4]: did not export misfolded huntingtin

α-synuclein
GFP-72Q huntingtin^exon1 cargo / aggregates in recipient CAD cells after media application [1]: low levels of GFP signal at 24 hours
mutant huntingtin export with increasing protein expression ([2]; western blot of EVs): did not result in mutant huntingtin export

B1: DnaJB11: related J protein (protein, UniProt Q9UBS4 23-358, looked up)
DnaJ homolog subfamily B …: GRDFYKILGVPRSASIKDIKKAYRKLALQLHPDRNPDDPQAQEKFQDLGAAYEVLSDSEKRKQYDTYGEEGLKDGHQSSHGDIFSHFFGDFGFMFGGTPRQQDRNIPRGSDIIVDLEVTLEEVYAGNFVEVVRNKPVARQAPGKRKCNCRQEMRTTQLGPGRFQMTQEVVCDECPNVKLVNEERTLEVEIEPGVRDGMEYPFIGEGEPHVDGEPGDLRFRIKVVKHPIFERRGDDLYTNVTISLVESLVGFEMDITHLDGHKVHISRDKITRPGAKLWKKGEGLPNFDNNNIKGSLIITFDVDFPKEQLTEEAREGIKQLLKQGSVQKVYNGLQGY
EV-mediated export of misfolded huntingtin [4]: did not export misfolded huntingtin

B2: CSPαΔ116: CSPα with the human L116Δ mutation that causes ANCL (protein, UniProt Q9H3Z4 1-198, looked up, variant L116*)
DnaJ homolog subfamily C …: MADQRQRSLSTSGESLYHVLGLDKNATSDDIKKSYRKLALKYHPDKNPDNPEAADKFKEINNAHAILTDATKRNIYDKYGSLGLYVAEQFGEENVNTYFVLSSWWAKALFVFCGLTCCYCCCCLCCCFNCCCGKCKPKAPEGEETEFYVSPEDLEAQLQSDEREATDTPIVIQPASATETTQLTADSHPSYHTDGFN
export of GFP-72Q huntingtin^exon1 [5]: promote export

B3: CSPαL115R: CSPα with the human L115R mutation that causes ANCL (protein, UniProt Q9H3Z4 1-198, looked up, variant L115R)
DnaJ homolog subfamily C …: MADQRQRSLSTSGESLYHVLGLDKNATSDDIKKSYRKLALKYHPDKNPDNPEAADKFKEINNAHAILTDATKRNIYDKYGSLGLYVAEQFGEENVNTYFVLSSWWAKALFVFCGRLTCCYCCCCLCCCFNCCCGKCKPKAPEGEETEFYVSPEDLEAQLQSDEREATDTPIVIQPASATETTQLTADSHPSYHTDGFN
export of GFP-72Q huntingtin^exon1 [5]: promote export

B4: CSPαHPD-AAA: loss-of-function CSPα mutant that does not interact with Hsp70 ATPases (protein, UniProt Q9H3Z4 1-198, looked up, variant H43A P44A D45A)
DnaJ homolog subfamily C …: B3 DnaJ homolog subfamily C … with H43A, P44A, D45A, R115L
GFP-72Q huntingtin^exon1 cargo / aggregates in recipient CAD cells after media application [1]: low levels of GFP signal at 24 hours
export of GFP-72Q huntingtin^exon1 [5]: does not

B5: DnaJB2: DnaJ Heat Shock Protein Family (Hsp40) Member B2 (protein, UniProt P25686 2-321, looked up)
DnaJ homolog subfamily B …: ASYYEILDVPRSASADDIKKAYRRKALQWHPDKNPDNKEFAEKKFKEVAEAYEVLSDKHKREIYDRYGREGLTGTGTGPSRAEAGSGGPGFTFTFRSPEEVFREFFGSGDPFAELFDDLGPFSELQNRGSRHSGPFFTFSSSFPGHSDFSSSSFSFSPGAGAFRSVSTSTTFVQGRRITTRRIMENGQERVEVEEDGQLKSVTINGVPDDLALGLELSRREQQPSVTSRSGGTQVQQTPASCPLDSDLSEDEDLQLAMAYSLSEMEAAGKKPAGGREAQHRRQGRPKAQHQDPGLGGTQEGARGEATKRSPSPEEKASRC
EV-mediated export of misfolded huntingtin [4]: exports misfolded huntingtin in EVs

B6: DnaJC14: related J protein (protein, UniProt Q6Y2X3 1-702, looked up)
DnaJ homolog subfamily C …: MAQKHPGERGLYGAHHSGGASLRTLGPSVDPEIPSFSGLRDSAGTAPNGTRCLTEHSGPKHTQHPNPAHWLDPSHGPPGGPGPPRDAEDPDQSETSSEEESGVDQELSKENETGNQKDGNSFLSIPSACNCQGTPGIPEGPYSEGGNGSSSNFCHHCTSPALGEDELEEEYDDEESLKFPSDFSRVSSGKKPPSRRQRHRFPTKEDTREGGRRDPRSPGRHRLGRKRSQADKRKGLGLWGAEELCQLGQAGFWWLIELLVLVGEYVETCGHLIYACRQLKSSDLDLFRVWMGVWTGRLGGWAQVMFQFLSQGFYCGVGLFTRFLKLLGALLLLALALFLGFLQLGWRFLVGLGDRLGWRDKATWLFSWLDSPALQRCLTLLRDSRPWQRLVRIVQWGWLELPWVKQNINRQGNAPVASGRYCQPEEEVARLLTMAGVPEDELNPFHVLGVEATASDVELKKAYRQLAVMVHPDKNHHPRAEEAFKVLRAAWDIVSNAEKRKEYEMKRMAENELSRSVNEFLSKLQDDLKEAMNTMMCSRCQGKHRRFEMDREPKSARYCAECNRLHPAEEGDFWAESSMLGLKITYFALMDGKVYDITEWAGCQRVGISPDTHRVPYHISFGSRIPGTRGRQRATPDAPPADLQDFLSRIFQVPPGQMPNGNFFAAPQPAPGAAAASKPNSTVPKGEAKPKRRKKVRRPFQR
EV-mediated export of misfolded huntingtin [4]: did not export misfolded huntingtin
